In article PMC10998878, “Inhibition of acyl-CoA binding protein (ACBP) by means of a GABAARγ2-derived peptide” (Cell Death & Disease, 2024):
“Also recorded” adds a separate entry of the source.

Columns and labels:
Huh-7 cells = assay: WST-8 conversion (metabolic activation) by Huh-7 cells; type: cell-based, human; settings: RecACBP/DBI pre-incubated overnight with eicosapeptide, 4 h
Protocol: Media and cell culture supplements were purchased from Gibco-Invitrogen (Carlsbad, CA, USA). Plasticware was purchased from Corning B.V. Life Sciences (Schiphol-Rijk, The Netherlands). Unless reported otherwise, the cell line used in this study was cultured at standard conditions (37 °C, 5% CO2, Dulbecco’s modified Eagle’s medium containing 10% fetal bovine serum, 10 mM HEPES buffer, 100 mg/L sodium pyruvate, 100 U/mL penicillin G sodium, and 100 µg/mL streptomycin sulfate). 2-deoxy-D-glucose (# D8375) and rotenone (# R8875) were purchased from Sigma (Burlington, MA, USA). Human hepatocellular carcinoma (Huh-7) cell line was used for in vitro experiments. Cells were plated in 6- or 96-well plates and grown for 24 h before treatments.
WST-8 conversion assays were conducted utilizing the Cell Counting Kit-8 (Sigma-Aldrich, #96992). Cells were seeded in a 96-well plate at a density of 3000 cells per well and incubated overnight for adherence. Then, the culture medium was removed, and fresh medium containing the specified treatments was added to the wells. Immediately following the addition of treatments, 10 μL of CCK-8 reagent was introduced to each well. Subsequently, the cells were incubated for 4.5 h at 37 °C to facilitate the conversion of WST-8 in response to cellular activity. Following the incubation period, the absorbance at 450 nm was quantified using a VICTOR® Nivo™ microplate reader. This measurement served as an indicator of WST-8 conversion, reflecting cellular metabolic activity.
Fig. 6 Inhibition of the metabolic effects of ACBP/DBI on hepatocytes by the GABAARγ2-derived eicosapeptide. A WST-8 conversion by murine primary hepatocytes treated with increasing concentrations of recombinant ACBP/DBI protein (RecACBP/DBI) for 4 h. Hepatocytes were isolated from tamoxifen-induced Acbp/Dbi f/f or Acbp/Dbi KO full-body genetic background mice (white- or blue-colored graphs respectively). […] For statistical analysis p values are calculated by one-way ANOVA. B WST-8 conversion by control (shUNR) and ACBP/DBI-knocked down (shACBP/DBI) human Huh-7 cells treated with increasing concentrations of RecACBP/DBI for 4 h. shUNR and shACBP/DBI cells are represented by white- or blue-colored graphs respectively. […] C WST-8 conversion by Huh-7 cells treated with RecACBP/DBI or negative control (4 h). Cells were pre-treated with 2-deoxy-D-glucose (2-Deoxy-D-glu; 300 µM) or vehicle (2 h). […] D WST-8 conversion by Huh-7 cells treated with RecACBP/DBI or negative control (4 h). Cells were pre-treated with rotenone (0.5 µM) or vehicle (2 h). […] E WST-8 conversion by Huh-7 cells treated with RecACBP/DBI or negative control (4 h). Prior to administration, RecACBP/DBI was overnight pre-incubated with monoclonal antibody (α-ACBP/DBI) or isotype IgG1. […] F WST-8 conversion by Huh-7 cells treated with RecACBP/DBI or negative control (4 h). Prior to administration, RecACBP/DBI was overnight pre-incubated with GABAARγ2 (WT or F77I-mutated) eicosapeptides.

[1] = system: GFP-LC3-expressing hepatocytes; assay: Hepatocyte autophagy activation (GFP-LC3 dots); type: cell-based; settings: GFP-LC3 mouse hepatocytes, peptide 10 µg/mL, with leupeptin
Protocol: […] Leupeptin (100 μM) was added 4 h before fixation. Cells were stained with Hoechst 33342 solution (Thermo Scientific™, #62249, 1 µg/mL) and fixed with 4% paraformaldehyde (PFA) solution. Both blue (Hoechst-derived) and green (GFP-LC3-derived) fluorescence were imaged using a Zeiss LSM 710 confocal microscope. Images were analyzed using R software.
Hepatocytes were isolated from 4 transgenic mice expressing microtubule- associated proteins 1A/1B light chain 3B (hereafter referred to as LC3) fused to green fluorescent protein (GFP) (resulting fusion protein: LC3-GFP) under a ubiquitous promoter. Such oligo- or monocellular hepatocyte suspensions were cultured in the continuous presence of leupeptin at 37°C in the absence (A) or presence (B) of the GABAARγ2- EP- WT […]
Cells were counterstained with Hoechst
33342 and representative fluorescence images are shown (bar size: 10 µm). The number of LC3-GFP+ dots per cells (defined as an area of interest around the 1 or 2 Hoechst 33342- positive nuclei per cell) were determined by image analysis and plotted in C .
Results are shown as means ± standards of the mean, and statistics were calculated with […]

C57BL/6 mice = assay: Concanavalin A-induced acute liver injury; type: in vivo, mouse; settings: C57BL/6 male mice, peptide 5 mg/kg i.v. 90 min before concanavalin A 12 mg/kg i.v.
Protocol: GABAARγ2 peptides (5 mg/kg, i.v., dissolved in DMSO) were injected in 12-week-old C57BL/6 male mice 90 min before the injection of 12 mg/kg Concanavalin A (ConA, i.v., Sigma Aldrich, # C5275).
Fig. 7 In vivo inhibition of ACBP/DBI function by the GABAARγ2-derived eicosapeptide. A, B Appetite stimulation by ACBP/DBI. RecACBP/DBI alone or combined with GABAARγ2-derived eicosapeptides (EP) (WT or F77I) was administered in vivo by intravenous (i.v.) injection and individual cumulative food intake was measured after 30 min. GABAARγ2 peptides are represented as blue stars, while murine RecACBP/DBI is represented as red circles (A). […] C, D Immunoblots and densitometric quantification of LC3 lipidation in liver tissues from mice treated with GABAARγ2-derived eicosapeptides (EP) WT with or without the autophagy flux inhibitor leupeptin (n = 5 mice per group). p values were calculated by unpaired one-tailed Student’s t-test. E–G Inhibition of concanavalin A hepatotoxicity. GABAARγ2 WT peptide (or negative vehicle) was i.v. injected to C57BL/6 male mice followed by concanavalin A (or negative vehicle) administration 1.5 h later (E). Alanine transaminase (ALT) (F) and aspartate transaminase (AST) (G) activity in plasma was analyzed by means of a colorimetric assay (n = 7–9 mice per condition). p values were calculated by unpaired one-tailed Student’s t-test. ns: non-significant. Unt: Untreated.

INMEYTIDIFFAQTWYDRRL [GABAARγ2-EP-WT]
inhibition of RecACBP/DBI-stimulated WST-8 conversion (eicosapeptides) (Huh-7 cells; n = 3): inhibited the ACBP/DBI-stimulated metabolic activation of Huh7 cells; also recorded: efficiently blocked the effects of recombinant human ACBP/DBI protein on human hepatocytes
inhibition of RecACBP/DBI-stimulated WST-8 conversion (eicosapeptides) (Huh-7 cells; n = 3, listed as GABAARγ2-derived eicosapeptide): inhibited the metabolic activation of hepatocytes by recombinant ACBP/DBI protein in vitro
capacity to enhance autophagic flux [1]: enhance autophagic flux
number of LC3-GFP dots per cell ([1]; confocal microscopy): increased the number of LC3-GFP dots
protection against concanavalin A hepatotoxicity, in words (C57BL/6 mice): attenuate acute hepatotoxicity induced by concanavalin A
plasma alanine aminotransferase (ALT) after concanavalin A (C57BL/6 mice; n = 7–9): significantly blunted the surge
plasma aspartate aminotransferase (AST) after concanavalin A (C57BL/6 mice; n = 7–9): significantly blunted the surge
protection against concanavalin A hepatotoxicity, in words (C57BL/6 mice; listed as GABAARγ2-derived eicosapeptide): protected mice against the hepatotoxin concanavalin A
